Data as given in ChEMBL document CHEMBL1134211, “8-Carboxamidocyclazocine analogues: redefining the structure-activity relationships of 2,6-methano-3-benzazocines” (Bioorg Med Chem Lett, 2001).

Columns and labels:
[1] = molecular target: Kappa-type opioid receptor (Cavia porcellus, UniProt P41144); assay: Displacement of [3H]U-69593 from Opioid receptor kappa 1 of guinea pig brain membranes
[2] = molecular target: Mu-type opioid receptor (Cavia porcellus, UniProt P97266); assay: Displacement of [3H]DAMGO from Opioid receptor mu 1 of guinea pig brain membranes
Chain of Mu-type opioid receptor (P97266 whole entry): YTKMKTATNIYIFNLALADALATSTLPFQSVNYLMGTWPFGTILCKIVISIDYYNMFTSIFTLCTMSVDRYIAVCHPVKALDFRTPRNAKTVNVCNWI

[3] = Displacement of [3H]naltrindole from Opioid receptor delta 1 of guinea pig brain membranes

Chain of Kappa-type opioid receptor (P41144 whole entry): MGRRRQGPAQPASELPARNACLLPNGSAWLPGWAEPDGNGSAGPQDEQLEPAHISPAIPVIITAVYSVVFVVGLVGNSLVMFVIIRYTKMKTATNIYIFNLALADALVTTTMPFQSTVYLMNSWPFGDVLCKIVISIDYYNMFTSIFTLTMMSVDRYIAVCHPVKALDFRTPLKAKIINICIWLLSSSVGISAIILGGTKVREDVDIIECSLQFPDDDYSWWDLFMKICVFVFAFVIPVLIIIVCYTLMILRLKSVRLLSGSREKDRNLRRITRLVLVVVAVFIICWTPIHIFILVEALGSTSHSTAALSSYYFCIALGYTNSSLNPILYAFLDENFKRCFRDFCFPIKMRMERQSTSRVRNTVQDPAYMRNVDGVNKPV

## C[C@H]1C2Cc3ccc(C(=O)Nc4ccccc4)cc3[C@@]1(C)CCN2CC1CC1 (mixture of isomers)
[1]
  Ki: 460 nM
[2]
  Ki: 740 nM

## C[C@H]1C2Cc3ccc(C(=O)N(C)C)cc3[C@@]1(C)CCN2CC1CC1 (mixture of isomers)
[1]
  Ki: 2500 nM
[2]
  Ki: 3000 nM

## C[C@H]1C2Cc3ccc(C#N)cc3[C@@]1(C)CCN2CC1CC1 (mixture of isomers)
[2]
  Ki: 540 nM

## C[C@H]1[C@H]2Cc3ccc(O)cc3[C@@]1(C)CCN2CC1CC1 (racemic)
[3]
  Ki: 1.1 nM

## CC[C@@]12CCN(CC3CC3)C(C(=O)c3ccc(C(N)=O)cc31)[C@@H]2C (mixture of isomers)
[1]
  Ki: 0.7 nM
[2]
  Ki: 1.2 nM

## C[C@H]1C2Cc3ccc(C(=O)O)cc3[C@@]1(C)CCN2CC1CC1 (mixture of isomers)
[1]
  Ki: 31 nM
[2]
  Ki: 58 nM

## CNC(=O)c1ccc2c(c1)[C@@]1(C)CCN(CC3CC3)C(C2)[C@@H]1C (mixture of isomers)
[1]
  Ki: 2.6 nM
[2]
  Ki: 24 nM

## C[C@@H]1[C@@H]2Cc3ccc(O)cc3[C@@]1(C)CN2CC1CC1
[3]
  Ki: 1100 nM

## COC(=O)c1ccc2c(c1)[C@@]1(C)CCN(CC3CC3)C(C2)[C@@H]1C (mixture of isomers)
[2]
  Ki: 45 nM
